This is an account of results in patent publication US11744819B2, “Antibiotic cannabinoid-terpene formulations” (priority 2019, dated 2023).

The test system of one data set is E. faecium VRE 55A6. Description: microbe, parasite or virus in culture. It counts as cell-based, Enterococcus faecium. The note with it: for MIC Alone / MIC: compound alone in checkerboard; for MIC: Enterococcus faecium, VRE, read-out: MIC Alone, E. faecium VRE 55A6. The source says: In therapeutic applications, synergy between active ingredients occurs when an observed combined therapeutic effect is greater than the sum of therapeutic effects of individual active ingredients, or a new therapeutic effect is produced that the active ingredients could not produce alone. […] In this context, the enhancement of therapeutic effect may take the form of increased efficacy or potency and/or decreased adverse effects. The synergistic effect may be mediated in whole or in part by the pharmacokinetics and/or pharmacodynamics of the active ingredients in a subject, so that the amount and proportion of the ingredients in the formulation may be synergistic in vivo. This in vivo synergy may be effected with a formulation that includes the active ingredients in amounts and proportions that are also synergistic in in vitro assays of efficacy. As used herein, the term “synergistically effective amounts” accordingly refers to amounts that are synergistic in vivo and/or in vitro. A numeric quantification of synergy is often expressed as a fractional inhibitory concentration index (FICI), which represents the sum of the fractional inhibitory concentrations (FICs) of each drug tested, where the FIC is determined for each drug by dividing the minimum inhibitory concentration (MIC, the lowest concentration of the drug which prevents visible growth of the bacterium in a standard in vitro assay-standard colorometric assay based on resazurin) of each drug when used in combination by the MIC of each drug when used alone. In very general terms, a FICI lower or higher than 1 indicates positively correlated activity (at least additive or potentiation) or an absence of positive interactions, respectively. More definitively, synergy of two compounds may be conservatively defined as a FICI of ::::0.5 (see Odds, 2003; with additivity or potentiation corresponding to a FICI of >0.5 to ::::0.75; no interaction (indifference) corresponding to a FICI of >1 to ::::4; and antagonism corresponding to a FICI of >>4). […] (Berenbaum, 1978; Yu et al., 1980). To estimate the optimal concentrations in triple combinations, the optimal concentrations of trans-caryophyllene and cannabinoid were utilized in combination with a series of daptomycin dilutions.
Pre-cultures of bacteria growing in their corresponding liquid media (defined below) were diluted to an 00600 of 0.0025 and 100 μl was added to 100 μl of medium containing serial 2-fold dilutions of cannabinoid (cannabinoid stocks, in methanol or acetonitrile for acidic forms, were diluted in growth medium) in 96-well plates. Plates were then incubated for 20-24 h at 37° C., and growth was recorded as 00600 in a Thermo Scientific™ Varioskan™ Flash Multimode Reader.
FICI values was determined in a 96 well checkerboard format using the MIC assay for cannabinoids (compound A), terpenes (compound B), and daptomycin (compound C) alone and in combinations. Terpene stocks were prepared in DMSO and diluted in the growth medium. The fractional inhibitory concentration for each compound was calculated as follows: FICA=(MIC of compound A in the presence of compound B)/(MIC of compound A alone). Similarly, the FICs for compounds Band C were calculated. The FICI was calculated as FICA plus FICs plus FICc.

A further data set relates to enterococci. Conditions: MIC 4 mg/L; 6 mg/kg doses; enterococcal bacteremia; cited from earlier work.
The test system of data set [1] is biofilms of E. faecium strain 3303. The data set is described as follows: Biofilm treatment (crystal violet mass, viable bacteria). It counts as cell-based, Enterococcus faecium. The note with it: 48 h biofilms of strain 3303 treated 72 h; FIG. 4. The procedure: The data in FIG. 4 was generated by growing biofilms of E. faecium strain 3303 for 48 h without cannabinoids, then treating the biofilms with cannabinoids for 72 h. The mass of the biofilm was quantitated by crystal violet staining. Viable bacteria in the biofilm were quantitated by scrapping biofilm then counting the viable bacteria. As illustrated, CBO and CBG illustrate a surprising degree of antibiotic activity against the strain 3303 of E. faecium. Of note, CBC was bactericidal against planktonic Enterococci.

Setting [2] is: E. faecium VRE 55A6, pairwise, with CBC.
Setting [3] is: E. faecium VRE 55A6, pairwise, with CBD.
Where [4] appears, read: E. faecium VRE 55A6, pairwise, with CBG.
Setting [5] is: E. faecium VRE 55A6, pairwise, with trans-caryophyllene.
Setting [6] is: E. faecium VRE 55A6, text b61, Table 7D.
The mark [7] stands for this setting: E. faecium VRE 55A6, triple, with CBC and trans-caryophyllene.
Setting [8] is: E. faecium VRE 55A6, triple, with CBD and trans-caryophyllene.
[9] abbreviates: E. faecium VRE 55A6, triple, with CBG and trans-caryophyllene.
Where [10] appears, read: E. faecium VRE 55A6, pairwise, with daptomycin.
[11] abbreviates: E. faecium VRE 55A6, triple, with daptomycin and trans-caryophyllene.

Values joined by “and” are separate entries in the source; they are usually repeats but may differ in a detail not shown here. Equal entries are not always repeated.

Take `CCCCCCCCCC(=O)N[C@@H](Cc1c[nH]c2ccccc12)C(=O)N[C@H](CC(N)=O)C(=O)N[C@@H](CC(=O)O)C(=O)N[C@@H]1C(=O)NCC(=O)N[C@@H](CCCN)C(=O)N[C@@H](CC(=O)O)C(=O)N[C@H](C)C(=O)N[C@@H](CC(=O)O)C(=O)NCC(=O)N[C@H](CO)C(=O)N[C@@H]([C@H](C)CC(=O)O)C(=O)N[C@@H](CC(=O)c2ccccc2N)C(=O)O[C@@H]1C` [Daptomycin, daptomycin, reference compound]: the “MIC Alone” value in the data set on E. faecium VRE 55A6 (E. faecium VRE 55A6) is 16 µg/mL and >16 µg/mL. In addition, the “MIC In combination” value with E. faecium VRE 55A6 (setting [2]) was found to be 0.031 µg/mL; with E. faecium VRE 55A6 (setting [3]), 1 µg/mL; with E. faecium VRE 55A6 (setting [4]), 4 µg/mL; in the data set with E. faecium VRE 55A6 (setting [5]), 8 µg/mL; with E. faecium VRE 55A6 (setting [7]) it was 0.03 µg/mL; in the data set with E. faecium VRE 55A6 (setting [8]) it was 2 µg/mL. For the same compound, the “MIC In combination” value in the data set with E. faecium VRE 55A6 (setting [9]) is 2 µg/mL. Also, the “Max. fold change in MIC” value in the data set on E. faecium VRE 55A6 (setting [2]) is 512 fold; in the data set on E. faecium VRE 55A6 (setting [3]), 16 fold; with E. faecium VRE 55A6 (setting [4]) it was 4 fold; in the data set with E. faecium VRE 55A6 (setting [5]), 2 fold; in the data set with E. faecium VRE 55A6 (setting [7]), over 512 fold; in the data set with E. faecium VRE 55A6 (E. faecium VRE 55A6, triple, with CBC and trans-caryophyllene, listed as daptomycin), over 512 fold. Further, the “Max. fold change in MIC” value in the data set on E. faecium VRE 55A6 (setting [8]) and with E. faecium VRE 55A6 (setting [9]) was over 8 fold each time. In addition, the “MIC of daptomycin (alone)” value in the data set with E. faecium VRE 55A6 (setting [6]) was over 16 µg/mL. In the data set on E. faecium VRE 55A6 (setting [6]), the “MIC of daptomycin in the presence of CBC and trans caryophyllene” value turned out to be 0.03 µg/mL. Further, the “probability of attaining target pharmacokinetic parameters” value in the data set with enterococci is 1.5-5.5%.

On to `CCCCCc1cc(O)c2c(c1)OC(C)(CCC=C(C)C)C=C2` (stereo not drawn) [CBC, cannabichromene], for which the “MIC Alone” value in the data set with E. faecium VRE 55A6 (E. faecium VRE 55A6) turned out to be 1 µg/mL. Also, the results for the “MIC In combination” value in the data set with E. faecium VRE 55A6 (setting [10]), with E. faecium VRE 55A6 (setting [5]) and in the data set with E. faecium VRE 55A6 (setting [11]) were 0.25 µg/mL, 0.5 µg/mL and 0.25 µg/mL, respectively. Moreover, the “Max. fold change in MIC” value in the data set on E. faecium VRE 55A6 (setting [10]) was found to be 8 fold; with E. faecium VRE 55A6 (setting [5]), 2 fold; in the data set on E. faecium VRE 55A6 (setting [11]), 8 fold. Also, the MIC with E. faecium VRE 55A6 worked out at 2 µg/mL.

As to `C=C(C)[C@@H]1CCC(C)=C[C@H]1c1c(O)cc(CCCCC)cc1O` [CBD, cannabidiol, reference compound], in the data set with E. faecium VRE 55A6 (E. faecium VRE 55A6), the “MIC Alone” value stood at 2 µg/mL. Besides, the “MIC In combination” value in the data set on E. faecium VRE 55A6 (setting [10]) was 0.5 µg/mL; with E. faecium VRE 55A6 (setting [5]), 1 µg/mL; in the data set with E. faecium VRE 55A6 (setting [11]), 0.5 µg/mL. The MIC in the data set with E. faecium VRE 55A6 turned out to be 4 µg/mL. Further, the “inhibition of E. faecium biofilm growth” value in data set [1] is given as “surprisingly effective at inhibiting E. faecium biofilm growth”.

`CCCCCc1cc(O)c(C/C=C(\C)CCC=C(C)C)c(O)c1` [CBG, cannabigerol]: the “MIC Alone” value with E. faecium VRE 55A6 (E. faecium VRE 55A6) came out at 2 µg/mL. Also, the “MIC In combination” value in the data set on E. faecium VRE 55A6 (setting [10]) came to 2 µg/mL; in the data set on E. faecium VRE 55A6 (setting [5]), 2 µg/mL; in the data set on E. faecium VRE 55A6 (setting [11]) it was 0.5 µg/mL. Also, the “Max. fold change in MIC” value is recorded as 2 fold in the data set on E. faecium VRE 55A6 (setting [10]), “none” in the data set on E. faecium VRE 55A6 (setting [5]) and 4 fold in the data set with E. faecium VRE 55A6 (setting [11]). In addition, the MIC in the data set with E. faecium VRE 55A6 is 4 µg/mL. For the same compound, the “inhibition of E. faecium biofilm growth” value in data set [1] is “surprisingly effective at inhibiting E. faecium biofilm growth”.
